In brackets after ≈: the same amount, converted by molar mass.
Tests used:
[1] = Hygroscopicity (moisture gain at relative humidity); assay type: physicochemical; parameters: Hygroscopy @ 85% RH: unit not given here
[2] = Known multiple solid forms; assay type: physicochemical; conditions: comparison table, Example 7
[3] = molecular target: T1, human neuronal nAChR α4β2 (Homo sapiens, UniProt P17787+P43681); experiment: similar functional assay using a human epithelial cell line stably expressing the human α4β2 subtype; assay type: cell-based
T1 construct: expressed in transfected cells
Description: To assess the activity of the compound of the invention on the human neuronal nAChR α4β2, a similar functional assay is carried out using a human epithelial cell line stably expressing the human α4β2 subtype (Michelmore et al., Naunyn-Schmiedeberg's Arch. Pharmacol. (2002) 366, 235).

Aqueous solubility = assay type: physicochemical
mice = experiment: Social Recognition Test in mice; assay type: in vivo; conditions: oral, dose 0.3 mg/kg, familiar partner at 24 h vs time 0
Description: Assay: Social interactions between two experimental animals are influenced by their degree of familiarity: the better they know each other, the less time they spend on mutual scrutiny at each meeting. […] Memory enhancing agents (i.e. oxiracetam) facilitate learning to the extent that the previously met (familiar) partner is still remembered after 24 h, whereas in vehicle treated control animals the memory usually fades after less than 1 hour (Thor and Holloway, 1982) or after 2-3 hours.
Baseline-test: Pairs consisting of one adult and one young mouse were assigned at random to the experimental and control groups. In each pair only the adult mouse was orally treated 1 hour before the trial with either vehicle or the test compound. The duration of active contacts of the adult mouse with the young mouse was manually recorded over a period of 3 min, including the following behavioural, approach-related items: sniffing, nosing, grooming, licking, pawing and playing, anogenital exploration and orientation toward the young mouse; orientation, thereby, was defined as tip of nose of the adult mouse less than approximately 1 cm distant from the young mouse's body. […]

[4] = Oral bioavailability and brain penetration in mice; assay type: in vivo
Description: Assay: Compounds were orally (30 μmol/kg) administered. Male mice (30-35 g, OF1/ICstrain) were sacrificed at indicated time points after oral administration. Trunk-blood was collected in EDTA-containing tubes and the brain was removed and immediately frozen on dry ice. To 100 μl plasma 10 μl internal standard (1.0 μmol of a compound with solubility and ionization properties similar to test compounds) was added and extracted three times with 500 μl dichloromethane. The combined extracts were then dried under a stream of nitrogen and re-dissolved in 100 μl acetonitrile/water (70% acetonitrile). Brains were weighed and homogenized in water (1:5 w/v). Two 100 μl aliquots of each homogenate+10 μl of internal standard (same standard as used for the plasma samples) were extracted three times with 500 μl dichloromethane and further processed as the plasma samples. Samples were separated on Beckmann high-performance liquid chromatography equipment system with an autosampler (Gilson 233XL). A 10 min linear gradient (10-70%) of acetonitrile containing 0.5% (v/v) formic acid was used to elute the compounds from Nucleosil CC-125/2 C18 reversed phase (Machery&Nagel) column.
The limit of detection (LOD), defined as the lowest concentration of the extracted standard sample with a signal to noise ratio of ˜3.

human α7-nAChR = molecular target: T2, human α7-nAChR (Homo sapiens, UniProt P36544); experiment: functional assay (FLIPR, Fluo-4 calcium) using GH3 cells that recombinantly expressed human α7-nAChR; assay type: cell-based
T2 construct: expressed in transfected cells; host or cells: GH3 cells (rat pituitary line)
Description: Assay: To assess α7-nAChR activity, a functional assay was employed using GH3 cells that recombinantly expressed human α7-nAChR. 40000 cells per well were seeded 48 h prior to the experiment on black 96-well plates (Costar) and incubated at 37° C. in a humidified atmosphere (5% CO2/95% air). On the day of the experiment, medium was removed by flicking the plates and replaced with 0.1 ml growth medium containing 0.002 mM Fluo-4, (Molecular Probes) in the presence of 2.5 mM probenecid (Sigma). The cells were incubated at 37° C. in a humidified atmosphere (5% CO2/95% air) for 1 h. Plates were flicked to remove excess of Fluo-4, washed twice with Hepes-buffered salt solution (HBSS, in mM: NaCl 130, KCl 5.4, CaCl2 2, MgSO4 0.8, NaH2PO4 0.9, glucose 25, Hepes 20, pH 7.4; HBS) and refilled with 0.1 ml of HBS containing antagonist when appropriate. The incubation in the presence of the antagonist lasted 3-5 minutes. Plates were placed in the cell plate stage of a FLIPR device (fluorimetric imaging plate reader, Molecular Devices, Sunnyvale, Calif., USA). After recording of the baseline (laser: excitation 488 nm at 1 W, CCD camera opening of 0.4 seconds) the agonists (0.05 ml) were added to the cell plate using the FLIPR 96-tip pipettor while simultaneously recording the fluorescence. […]

[5] = Loss on drying / initial water content; assay type: physicochemical; parameters: Initial water content: unit not given here

T1 sequence (P43681 29-627 limits assumed): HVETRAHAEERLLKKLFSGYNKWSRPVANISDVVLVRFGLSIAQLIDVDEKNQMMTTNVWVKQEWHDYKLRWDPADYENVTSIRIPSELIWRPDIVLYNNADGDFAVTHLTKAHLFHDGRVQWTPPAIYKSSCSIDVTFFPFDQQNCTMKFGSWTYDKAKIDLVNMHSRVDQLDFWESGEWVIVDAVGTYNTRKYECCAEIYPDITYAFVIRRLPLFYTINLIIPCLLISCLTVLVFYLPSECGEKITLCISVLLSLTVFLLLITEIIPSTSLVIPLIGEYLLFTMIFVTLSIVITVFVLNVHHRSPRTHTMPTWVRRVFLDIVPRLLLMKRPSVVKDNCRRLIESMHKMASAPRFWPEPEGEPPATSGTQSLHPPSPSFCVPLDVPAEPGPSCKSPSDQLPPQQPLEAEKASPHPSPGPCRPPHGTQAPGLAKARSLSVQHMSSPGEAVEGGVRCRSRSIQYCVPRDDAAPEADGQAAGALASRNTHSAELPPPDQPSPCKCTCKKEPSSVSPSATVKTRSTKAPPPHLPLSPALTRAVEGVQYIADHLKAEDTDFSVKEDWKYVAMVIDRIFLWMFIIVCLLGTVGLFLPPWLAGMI
T1 sequence (P17787 26-502): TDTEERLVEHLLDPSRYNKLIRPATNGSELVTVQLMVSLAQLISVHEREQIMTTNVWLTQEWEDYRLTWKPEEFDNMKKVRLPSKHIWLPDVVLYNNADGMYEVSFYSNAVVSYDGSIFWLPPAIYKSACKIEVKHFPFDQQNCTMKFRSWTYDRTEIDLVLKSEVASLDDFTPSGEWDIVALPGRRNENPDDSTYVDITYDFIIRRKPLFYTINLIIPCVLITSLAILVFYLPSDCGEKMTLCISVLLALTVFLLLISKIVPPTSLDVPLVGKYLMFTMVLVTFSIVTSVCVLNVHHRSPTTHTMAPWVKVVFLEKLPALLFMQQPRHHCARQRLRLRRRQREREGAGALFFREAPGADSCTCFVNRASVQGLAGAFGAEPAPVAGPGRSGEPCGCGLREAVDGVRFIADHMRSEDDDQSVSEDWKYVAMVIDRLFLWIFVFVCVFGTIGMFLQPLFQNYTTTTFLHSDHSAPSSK
T2 sequence (P36544 23-502): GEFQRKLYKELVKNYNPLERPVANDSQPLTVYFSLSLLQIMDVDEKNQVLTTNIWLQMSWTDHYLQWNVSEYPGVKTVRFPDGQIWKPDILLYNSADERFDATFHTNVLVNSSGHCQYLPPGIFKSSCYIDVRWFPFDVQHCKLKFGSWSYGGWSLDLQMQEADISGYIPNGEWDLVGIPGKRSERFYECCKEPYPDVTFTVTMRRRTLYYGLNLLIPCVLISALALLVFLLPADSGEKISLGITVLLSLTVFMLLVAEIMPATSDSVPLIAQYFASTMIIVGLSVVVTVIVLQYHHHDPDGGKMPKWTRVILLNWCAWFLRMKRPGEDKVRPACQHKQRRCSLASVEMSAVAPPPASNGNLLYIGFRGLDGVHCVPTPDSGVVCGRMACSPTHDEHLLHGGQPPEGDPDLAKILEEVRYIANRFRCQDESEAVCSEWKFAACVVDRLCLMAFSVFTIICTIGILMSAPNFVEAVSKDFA

Cc1ccc(-c2ccc(O[C@H]3CN4CCC3CC4)cn2)cc1 [Compound A, (R)-3-(6-(4-methylphenyl)-pyridin-3-yloxy)-1-aza-bicyclo[2.2.2]octane]
hygroscopicity (in words) [1]: hygroscopic | moisture gain ([1]; at 93% relative humidity (RH)): 2% | Hygroscopy @ 85% RH ([1]; comparison table, Example 7): ~2 | Known Multiple forms [2]: Yes | EC50 [3]: > 100 µM | IC50 [3]: 5.6 µM | aqueous solubility (in words) (Aqueous solubility): low | solubility (Aqueous solubility; aqueous medium, comparison table, Example 7): 50 µg/mL (≈ 170 µM) | Reduction in time scrutinizing in % ± SEM at 24 h (mice): 36 ± 6% | Brain (pmoles/g ± SD) ([4]; 30 μmol/kg p.o., 0.25 hour): 4631 ± 1717 pmol/g | Brain (pmoles/g ± SD) ([4]; 30 μmol/kg p.o., 0.5 hour): 11430 ± 3441 pmol/g | Brain (pmoles/g ± SD) ([4]; 30 μmol/kg p.o., 1 hour): 14948 ± 4716 pmol/g | Brain (pmoles/g ± SD) ([4]; 30 μmol/kg p.o., 4 hour): 1272 ± 715 pmol/g | Brain (pmoles/g ± SD) ([4]; 30 μmol/kg p.o., 8 hour): 58 ± 27 pmol/g | time for which brain concentration is beyond (or at least equal) to the EC50 at the α7-nAChR ([4]; acute oral dose of 30 μmol/kg): at least 4 hours | concentration at 0.25 h ([4]; male, OF1/IC, mouse, plasma, po, 30 μmol/kg p.o., 0.25 hour, read-out: Plasma (pmoles/ml ± SD)): 573 ± 234 pmol/mL | concentration at 0.5 h ([4]; male, OF1/IC, mouse, plasma, po, 30 μmol/kg p.o., 0.5 hour, read-out: Plasma (pmoles/ml ± SD)): 559 ± 143 pmol/mL | concentration at 1 h ([4]; male, OF1/IC, mouse, plasma, po, 30 μmol/kg p.o., 1 hour, read-out: Plasma (pmoles/ml ± SD)): 322 ± 135 pmol/mL | concentration at 4 h ([4]; male, OF1/IC, mouse, plasma, po, 30 μmol/kg p.o., 4 hour, read-out: Plasma (pmoles/ml ± SD)): 20 ± 16 pmol/mL | concentration at 8 h ([4]; male, OF1/IC, mouse, plasma, po, 30 μmol/kg p.o., 8 hour, read-out: Plasma (pmoles/ml ± SD)): 3.4 ± 0.8 pmol/mL | α7-nAChR activity Efficacy compared to epibatidine (100%) (human α7-nAChR; Emax relative to epibatidine response): 75% | EC50 (human α7-nAChR; GH3 cells, human α7-nAChR, read-out: α7-nAChR activity Potency EC50): 0.035 µM | Loss on drying (LOD) of a sample [5]: 0.1% | Initial water content ([5]; comparison table, Example 7): 0.1

— patent US10421755B2, “Salts of aza-bicyclic di-aryl ethers and methods to make them or their precursors” (Novartis AG, priority 2011, dated 2019)
